Patent US20240285634A1, “COMPOUND AND METHOD FOR TREATING CHEMOTHERAPY-ASSOCIATED GASTROINTESTINAL SIDE EFFECTS” (ONQUALITY PHARMACEUTICALS CHINA LTD., priority 2021, published 2024)
Where a name gives a salt, the structure may show the parent alone.

System: Chemotherapeutic agent-caused diarrhea models of Balb/c mice
Assay: Relieving effect on diarrhea caused by a chemotherapeutic agent (Examples 1-201)
Assay type: in vivo
Source text: Construction of mouse animal models: Chemotherapeutic agent-caused diarrhea models of Balb/c mice were constructed according to the administration mode and frequency of the chemotherapeutic agent as shown in Table 3. After administration for several days, mice developed different extents of diarrhea symptoms (as shown in FIG. 1), which were similar to the conditions in human. Thus, chemotherapeutic agent-caused diarrhea models of mice are very good models to mimic diarrhea in human caused by the chemotherapeutic agent.
Balb/c mice were fed for 1 week, and then divided into groups. The experiment was divided into a control group, a chemotherapeutic agent group, and a group of the compound as shown in Formula I, each of which comprised 10 mice, to perform the administration experiment, for which the administration dosage, mode, time and frequency were shown in Table 3. The control group: being injected or intragastrically administered with the same solvent as that used in the group of the compound as shown in Formula I (the injection mode and time were shown in Table 3), and then being injected or intragastrically administered with the same solvent as that used in the chemotherapeutic agent group (the administration mode was shown in Table 3); the chemotherapeutic agent group: being injected or intragastrically administered with the same solvent as that used in the group of the compound as shown in Formula I (the administration mode and time were shown in Table 3), and then being injected or intragastrically administered with the chemotherapeutic agent (the type, administration mode and dosage were shown in Table 3); the group of the compound as shown in Formula I: being injected or intragastrically administered with the compound as shown in Formula I (the administration mode and time were shown in Table 3), and then being administered with the chemotherapeutic agent (the administration mode and dosage were shown in Table 3).
The scoring of diarrhea can refer to the method of Akinobu Kurita (Cancer Chemother Pharmacol 2000; 46:211-20.), Grade 0: normal feces; Grade 1: mild diarrhea, the stools is slightly wet and soft; Grade 2: moderate diarrhea, loose stools and mild perianal contamination; Grade 3: severe diarrhea, watery stools and accompanied by severe perianal staining (see FIG. 1). It is regarded as effective remission when the diarrhea grading of mice in the group of the compound as shown in Formula I is reduced compared with the average diarrhea grading of mice in the chemotherapeutic agent group.
The diarrhea grading of mice was observed and recorded every day. At the end of the experiment, the number of mice in the group of the compound as shown in Formula I whose diarrhea grading was lower than that of mice in the chemotherapeutic agent group was recorded. Table 3 lists various animal experiment combinations of chemotherapeutic agents and the compound as shown in Formula I, as well as the corresponding experimental results. (Relative remission rate %=the number of mice in the group of the compound as shown in Formula I whose diarrhea has been effectively relieved/the total number of mice in the group of the compound as shown in Formula I*100%. The establishment rate of diarrhea model in the chemotherapeutic agent group was 50%-70%, that is, about 5-7 of 10 mice developed diarrhea during the experiment, and there were cases of individual mice death or not developing diarrhea.)

Work on CC(C)N1CCN(c2ccc(Nc3ncc4cc5n(c4n3)C3(CCCCC3)CNC5=O)nc2)CC1 [Compound IV hydrochloride, Lerociclibdihydrochloride] yielded a Relative remission rate (Ex 115, Irinotecan (CPT-11) 240 mg/kg intraperitoneal single, compound 100 mg/kg intraperitoneal single 0.5 h before, cycle 11 days) of 40%, a Relative remission rate (Ex 116, Irinotecan (CPT-11) 240 mg/kg intraperitoneal single, compound 100 mg/kg intraperitoneal single 4 h before, cycle 11 days) of 60% and a Relative remission rate (Ex 117, Irinotecan (CPT-11) 240 mg/kg intraperitoneal single, compound 100 mg/kg intraperitoneal single 12 h before, cycle 11 days) of 20%. It also gave a Relative remission rate (Ex 188, Fluorouracil 50 + oxaliplatin 5 + irinotecan 50 + tetrahydrofolic acid 90 mg/kg intravenous single, compound 100 mg/kg intraperitoneal single 0.5 h before, cycle 7 days) of 70%, a Relative remission rate (Ex 189, Fluorouracil 50 + oxaliplatin 5 + irinotecan 50 + tetrahydrofolic acid 90 mg/kg intravenous single, compound 100 mg/kg intraperitoneal single 12 h before, cycle 7 days) of 50% and a Relative remission rate (Ex 201, Gemcitabine 120 + carboplatin 5 mg/kg intravenous single, compound 100 mg/kg oral single 24 h before, cycle 8 days) of 40%.
